Key:
[1] = system: Tera-2 testicular cancer cells; assay: MTT cytotoxicity assay of vanadocenes, TERA-2 cells; type: cell-based, human; conditions: 24 h, 1.9-250 μM
Experimental: (§1) Human testicular cancer cell lines, Tera-2 (embryonal carcinoma) and Ntera-2 (pluripotent embryonal carcinoma) were obtained from the American Type Culture Collection (ATCC) (Rockeville, Md.) and propagated in T-25, T-75, or T-150 cm^2 tissue culture flasks (Corning Corp., Corning, N.Y.) in McCoy's 5A medium and Dulbecco's modified Eagle's medium respectively. Both media were supplemented with 10% fetal calf serum (FCS), 4 mM glutamine, 100 U/ml penicillin G, and […] streptomycin sulfate. All tissue culture reagents were obtained from Life Technologies Inc. (GIBCO-BRL), Gaithersburg, Md. Cell lines were cultivated for a minimum of two passages after thawing prior to experimentation. Other cell lines that were used in this study were the human B-lineage acute lymphoblastic leukemia (ALL) cell line NALM-6. Uckun, F. M., Evans, W. E., Forsyth, C. J., Waddick, K. G., Tuel-Ahlgren, L., Chelstrom, L. M., Burkhardt, A., Bolen, J., Myers, D. E. Biotherapy of B-cell precursor leukemia by targeting genistein to CD19-associated tyrosine kinase. Science (Washington DC) 267:886–91, 1995; T-lineage ALL cell line MOLT-3, Waurzyniak, B., Shneider, E. A., Tumer, N., Yanishevski, Y., Gunther, R., Chelstrom, L., Wendorf, H., Myers, D. E., Irvin, J. D., Messinger, Y., Ek, O., Zeren, T., Chandan-Langlie, M., Evans, W. E., Uckun, F. M. In vivo toxicity, pharmacokinetics, and antileukemic activity of TXU (anti-CD7)-pokeweed antiviral protein immunotoxin. Clinical Cancer Research 3:881–890, 1997; AML cell line HL-60, Perentesis, J. P., Waddick, K. G., Bendel, A. E., Shao, Y., Warman, B. E., Chandan-Langlie, M., and Uckun, F. M. Induction of apoptosis in multi-drug resistant andradiation-resistant acute myeloid leukemia cells by a recombinant fusion toxin directed against the granulocyte macrophage colony stimulating factor receptor. Clin. Cancer Res. 3:347–355, 1997; breast cancer cell lines MDA-MB-231 and BT-20, Uckun, F. M., Narla, R. K., Jun, X., Zeren, T., Venkatachalam, T., Waddick, K. G., Rostostev, A., Myers, D. E. Cytotoxic activity of EGF-genstein against breast cancer cells. Clin. Cancer Res. 4:901–912, 1998; glioblastoma cell lines U87 and U373, Narla, R. K., Liu, X., Myers, D. E., and Uckun, F. M. 4-(3′-Bromo-4′hydroxylphenyl)-amino-6,7-dimethoxyquinazoline (WHI-P154): A novel quinazoline derivative with potent cytotoxic activity against human glioblastoma cells. Clin. Cancer Res. 4:1405–1414, 1998.
(§2) MTT (3-[4,5-dimethyl thiazol-2-yl]-2,5-diphenyltetrazolium bromide)-based colorimetric assays were used for evaluation of the cytotoxicity of vanadocene compounds. Mosmann, T. Rapid colorimetric assay for cellular growth and survival: application to proliferation and cytotoxicity assays. J. Immunol. Methods, 65: 55–63, 1983. Briefly, cells were harvested with 0.125% (w/v) trypsin-0.02% EDTA (GIBCO-BRL) from exponential-phase maintenance cultures and centrifuged (300 g×5 min). After suspension and counting, cells were dispensed within triplicate 96-well tissue culture plates in 100 μl volumes. After 24 h incubation, the culture medium was discarded and replaced with 100 μl of fresh medium containing serial two-fold dilutions of drugs in medium to yield 1.9 μM to 250 μM. All compounds were reconstituted in DMSO to a concentration of 100 mM, and the stock solution was made fresh for each experiment. Control wells consisted of medium containing 0.25% of DMSO alone were used for solvent control. Culture plates were then incubated for 24 h before adding 10 μl of MTT solution (5 mg/ml in PBS) to each well. Wells containing only medium and MTT were used as controls for each plate. The tetrazolium/formazan reaction was allowed to proceed for 4 h at 37° C., and then 100 μl of the solubilization buffer (10% sodium dodecyl sulfate in 0.1% HCl) were added to all wells and mixed thoroughly to dissolve the dark blue formazan crystals. […]

[2] = system: Ntera-2 testicular cancer cells; assay: MTT cytotoxicity assay of vanadocenes, NTERA-2 cells; type: cell-based, human; conditions: 24 h, 1.9-250 μM
Experimental: as §1, §2

[3] = system: Tera-2 and Ntera-2 human testicular cancer cell lines; assay: MTT cytotoxicity assay, text statements for both testicular cancer cell lines; type: cell-based; conditions: Tera-2 and Ntera-2, tested side-by-side, up to 250 μM; read-out: IC50 (cytotoxicity, two testicular cancer cell lines)
Experimental: Human testicular cancer cell lines, Tera-2 (embryonal carcinoma) and Ntera-2 (pluripotent embryonal carcinoma) were obtained from the American Type Culture Collection (ATCC) (Rockeville, Md.) and propagated in T-25, T-75, or T-150 cm^2 tissue culture flasks (Corning Corp., Corning, N.Y.) in McCoy's 5A medium and Dulbecco's modified Eagle's medium respectively. Both media were supplemented with 10% fetal calf serum (FCS), 4 mM glutamine, 100 U/ml penicillin G, and 100 mg/ml streptomycin sulfate. All tissue culture reagents were obtained from Life Technologies Inc. (GIBCO-BRL), Gaithersburg, Md. Cell lines were cultivated for a minimum of two passages after thawing prior to experimentation.
MTT (3-[4,5-dimethyl thiazol-2-yl]-2,5-diphenyltetrazolium bromide)-based colorimetric assays were used for evaluation of the cytotoxicity of vanadocene compounds. […] Briefly, cells were harvested with 0.125% (w/v) trypsin-0.02% EDTA (GIBCO-BRL) from exponential-phase maintenance cultures and centrifuged (300 g×5 min). After suspension and counting, cells were dispensed within triplicate 96-well tissue culture plates in 100 μl volumes. […] After an overnight incubation at 37° C., the optical densities at 540 nm were measured using a 96-well multiscanner autoreader, with the solubilization buffer serving as blank. All assays were run in triplicate and results were expressed as IC50 values.

[4] = system: PC3 prostate cancer cells; assay: Cytotoxic activity of oxovanadium(IV) compounds, PC3; type: cell-based, human; conditions: read-out: Cytotoxic Activity PC3
Experimental: (§3) The cytotoxicity of oxovanadium (W) complexes listed in Table 6 were tested against 9 different human cancer cell lines was performed using the MTT (3-[4,5-dimethylthiazol-2-yl]-2,5-diphenyl tetrazolium bromide) assay (Boehringer Mannheim Corp., Indianapolis, Ind.) as described previously (20). Briefly, exponentially growing tumor cells were seeded into a 96-well plate at a density of 4×10^4cells/well and incubated with medium containing the oxovanadium(IV) compounds concentrations ranging from 0.1 to 250 μM for 48 hours at 37° C. in a humidified 5% CO2 atmosphere. Triplicate wells were used for each treatment. To each well, 10 μl of MTT (0.5 mg/ml final concentration) was added and the plates were incubated at 37° C. for 4 hours to allow MTT to form formazan crystals by reacting with metabolically active cells . The formazan crystals were solubilized overnight at 37° C. in a solution containing 10% SDS in 0.01 M HCl. The absorbence of each well was measured in a microplate reader (Labsystems) at 540 nm and a reference wavelength of 690 nm. To translate the OD540 values into the number of live cells in each well, the OD540 values were compared to those on standard OD540—versus—cell number curves generated for each cell line. The percent survival was calculated using the formula: % survival=Live cell number[test]/Live cell number [control]×100. The IC50 values were calculated by non-linear regression analysis using an Graphpad Prism software version 2.0 (Graphpad Software, Inc., San Diego, Calif.).

[5] = system: NTD1 testicular cancer cells; assay: Cytotoxic activity of oxovanadium(IV) compounds, NTD1; type: cell-based, human; conditions: read-out: Cytotoxic Activity NTD1
Experimental: as §3

NALM-6 cells [6] = assay: MTT cytotoxicity assay of oxovanadium(IV) compounds, NALM-6; type: cell-based, human; conditions: 48 hr
Experimental: as §3

[7] = system: 64cp5 testicular cancer cells; assay: Cytotoxic activity of oxovanadium(IV) compounds, 64cp5; type: cell-based, human; conditions: read-out: Cytotoxic Activity 64cp5
Experimental: as §3

BT20 breast cancer cells = assay: Cytotoxic activity of oxovanadium(IV) compounds, BT20; type: cell-based, human; conditions: read-out: Cytotoxic Activity BT20
Experimental: as §3

HS-SULTAN cells = assay: In situ detection of apoptosis, confocal microscopy, HS-SULTAN; type: cell-based, human; conditions: 48 hours after treatment
Experimental: (§4) Exponentially growing cells were seeded in 6-well tissue culture plates and incubated with fresh medium containing compounds. […] The cells were fixed in 2% paraformaldehyde, washed with PBS and pelleted by centrifuging the tubes at 1000 rpm for 5 min. Cells pellets were resuspended in 50 μl of PBS, transferred to superforst plus slides and allowed to attach for 15 min. The cells were permeabilized with 0.1% triton X-100 in 0.1% citrate buffer and incubated for 1 hr at 37° C. with the reaction mixture containing terminal deoxynucleotidyl transferase (TdT) and fluorescein isothiocyanate (FITC)-conjugated dUTP. Cells were washed with PBS to remove unbound reagents and the coverslips were mounted onto slides with Vectashield containing propidium iodide (Vector Labs, Burlingame, Calif.) and slides were viewed with a confocal laser scanning microscope. […] In control reactions, the TdT enzyme was omitted from the reaction mixture.

[8] = system: HS445 Hodgkin's lymphoma cells; assay: MTT cytotoxicity assay of oxovanadium(IV) compounds, HS445; type: cell-based, human; conditions: 48 hr
Experimental: as §3

[9] = system: U266BL multiple myeloma cells; assay: MTT cytotoxicity assay of oxovanadium(IV) compounds, U266BL; type: cell-based, human; conditions: 48 hr
Experimental: as §3

[10] = system: Tera-2 testicular cancer cells; assay: Cytotoxic activity of oxovanadium(IV) compounds, TERA-2; type: cell-based, human; conditions: read-out: Cytotoxic Activity TERA-2
Experimental: as §3

[11] = system: 833-K testicular cancer cells; assay: Cytotoxic activity of oxovanadium(IV) compounds, 833-K; type: cell-based, human; conditions: read-out: Cytotoxic Activity 833-K
Experimental: as §3

MOLT-3 cells = assay: MTT cytotoxicity assay of oxovanadium(IV) compounds, MOLT-3; type: cell-based, human; conditions: 48 hr
Experimental: as §3

U373 glioblastoma cells = assay: Cytotoxic activity of oxovanadium(IV) compounds, U373; type: cell-based, human; conditions: read-out: Cytotoxic Activity U373
Experimental: as §3

HL-60 cells = assay: MTT cytotoxicity assay of oxovanadium(IV) compounds, HL-60; type: cell-based, human; conditions: 48 hr
Experimental: as §3

[12] = system: ARH77 multiple myeloma cells; assay: MTT cytotoxicity assay of oxovanadium(IV) compounds, ARH77; type: cell-based, human; conditions: 48 hr
Experimental: as §3, with “Briefly, exponentially growing tumor cells were seeded into a 96-well plate at a density of 4×10^4cells/well and incubated with medium containing the oxovanadium(IV) compounds concentrations ranging from 0.1 to 250 μM for 48 hours at 37° C. in a humidified 5% CO2 atmosphere.” left out

[13] = system: HS-SULTAN multiple myeloma cells; assay: MTT cytotoxicity assay of oxovanadium(IV) compounds, HS-SULTAN; type: cell-based, human; conditions: 48 hr
Experimental: as §3

NALM-6 cells [14] = assay: In situ detection of apoptosis, confocal microscopy, NALM-6; type: cell-based, human; conditions: 48 hours after treatment
Experimental: as §4

Molecule	IC50 [1] [µM]	IC50 [2] [µM]	IC50 [3] [µM]	IC50 [4] [µM]	IC50 [5] [µM]	IC50 (NALM-6 cells [6]) [µM]	IC50 [7] [µM]	IC50 (BT20 breast cancer cells) [µM]	apoptotic nuclei (FITC-dUTP / propidium iodide), HS-SULTAN (HS-SULTAN cells)	IC50 [8] [µM]	IC50 [9] [µM]	IC50 [10] [µM]	IC50 [11] [µM]	IC50 (MOLT-3 cells) [µM]	IC50 (U373 glioblastoma cells) [µM]	IC50 (HL-60 cells) [µM]	IC50 [12] [µM]	IC50 [13] [µM]	apoptotic nuclei (FITC-dUTP / propidium iodide), NALM-6 (NALM-6 cells [14])
O=S(=O)([O-])[O-].[O]=[V+2] [VDSO4, vanadyl(IV) sulfate, reference compound]	> 250	> 250	> 250																
(diaqua)(4,7-dimethyl-1,10-phenanthroline)oxovanadium(IV) sulfate [Compound 28]				5.8	12.8	0.78 ± 0.1	15.2	2.1	many apoptotic yellow nuclei	3.3 ± 1.4	1.3 ± 0.1	57.6	6	1.37 ± 0.07	2.2	6.2 ± 2.3	8.1 ± 1.6	5.1 ± 1.02	many apoptotic yellow nuclei
